Test results reported in article PMC5913400, “Yoda1 analogue (Dooku1) which antagonizes Yoda1‐evoked activation of Piezo1 and aortic relaxation” (British Journal of Pharmacology, 2018).
Like-named read-outs stand apart in the source and are kept apart here. One block for each compound: values may come before it.

Assays:
Assay type in all cases: cell-based
Piezo1 [1] = molecular target: T1, Piezo1 (Homo sapiens, UniProt Q92508); assay: partial agonist; […] pretreatment reduces […] Yoda1-evoked Ca2+ entry in Piezo1 T-REx HEK […] cells; conditions: TREx-HEK; read-out: % inhibition of Yoda1 response at 10 μM
T1 sequence (Q92508 whole entry): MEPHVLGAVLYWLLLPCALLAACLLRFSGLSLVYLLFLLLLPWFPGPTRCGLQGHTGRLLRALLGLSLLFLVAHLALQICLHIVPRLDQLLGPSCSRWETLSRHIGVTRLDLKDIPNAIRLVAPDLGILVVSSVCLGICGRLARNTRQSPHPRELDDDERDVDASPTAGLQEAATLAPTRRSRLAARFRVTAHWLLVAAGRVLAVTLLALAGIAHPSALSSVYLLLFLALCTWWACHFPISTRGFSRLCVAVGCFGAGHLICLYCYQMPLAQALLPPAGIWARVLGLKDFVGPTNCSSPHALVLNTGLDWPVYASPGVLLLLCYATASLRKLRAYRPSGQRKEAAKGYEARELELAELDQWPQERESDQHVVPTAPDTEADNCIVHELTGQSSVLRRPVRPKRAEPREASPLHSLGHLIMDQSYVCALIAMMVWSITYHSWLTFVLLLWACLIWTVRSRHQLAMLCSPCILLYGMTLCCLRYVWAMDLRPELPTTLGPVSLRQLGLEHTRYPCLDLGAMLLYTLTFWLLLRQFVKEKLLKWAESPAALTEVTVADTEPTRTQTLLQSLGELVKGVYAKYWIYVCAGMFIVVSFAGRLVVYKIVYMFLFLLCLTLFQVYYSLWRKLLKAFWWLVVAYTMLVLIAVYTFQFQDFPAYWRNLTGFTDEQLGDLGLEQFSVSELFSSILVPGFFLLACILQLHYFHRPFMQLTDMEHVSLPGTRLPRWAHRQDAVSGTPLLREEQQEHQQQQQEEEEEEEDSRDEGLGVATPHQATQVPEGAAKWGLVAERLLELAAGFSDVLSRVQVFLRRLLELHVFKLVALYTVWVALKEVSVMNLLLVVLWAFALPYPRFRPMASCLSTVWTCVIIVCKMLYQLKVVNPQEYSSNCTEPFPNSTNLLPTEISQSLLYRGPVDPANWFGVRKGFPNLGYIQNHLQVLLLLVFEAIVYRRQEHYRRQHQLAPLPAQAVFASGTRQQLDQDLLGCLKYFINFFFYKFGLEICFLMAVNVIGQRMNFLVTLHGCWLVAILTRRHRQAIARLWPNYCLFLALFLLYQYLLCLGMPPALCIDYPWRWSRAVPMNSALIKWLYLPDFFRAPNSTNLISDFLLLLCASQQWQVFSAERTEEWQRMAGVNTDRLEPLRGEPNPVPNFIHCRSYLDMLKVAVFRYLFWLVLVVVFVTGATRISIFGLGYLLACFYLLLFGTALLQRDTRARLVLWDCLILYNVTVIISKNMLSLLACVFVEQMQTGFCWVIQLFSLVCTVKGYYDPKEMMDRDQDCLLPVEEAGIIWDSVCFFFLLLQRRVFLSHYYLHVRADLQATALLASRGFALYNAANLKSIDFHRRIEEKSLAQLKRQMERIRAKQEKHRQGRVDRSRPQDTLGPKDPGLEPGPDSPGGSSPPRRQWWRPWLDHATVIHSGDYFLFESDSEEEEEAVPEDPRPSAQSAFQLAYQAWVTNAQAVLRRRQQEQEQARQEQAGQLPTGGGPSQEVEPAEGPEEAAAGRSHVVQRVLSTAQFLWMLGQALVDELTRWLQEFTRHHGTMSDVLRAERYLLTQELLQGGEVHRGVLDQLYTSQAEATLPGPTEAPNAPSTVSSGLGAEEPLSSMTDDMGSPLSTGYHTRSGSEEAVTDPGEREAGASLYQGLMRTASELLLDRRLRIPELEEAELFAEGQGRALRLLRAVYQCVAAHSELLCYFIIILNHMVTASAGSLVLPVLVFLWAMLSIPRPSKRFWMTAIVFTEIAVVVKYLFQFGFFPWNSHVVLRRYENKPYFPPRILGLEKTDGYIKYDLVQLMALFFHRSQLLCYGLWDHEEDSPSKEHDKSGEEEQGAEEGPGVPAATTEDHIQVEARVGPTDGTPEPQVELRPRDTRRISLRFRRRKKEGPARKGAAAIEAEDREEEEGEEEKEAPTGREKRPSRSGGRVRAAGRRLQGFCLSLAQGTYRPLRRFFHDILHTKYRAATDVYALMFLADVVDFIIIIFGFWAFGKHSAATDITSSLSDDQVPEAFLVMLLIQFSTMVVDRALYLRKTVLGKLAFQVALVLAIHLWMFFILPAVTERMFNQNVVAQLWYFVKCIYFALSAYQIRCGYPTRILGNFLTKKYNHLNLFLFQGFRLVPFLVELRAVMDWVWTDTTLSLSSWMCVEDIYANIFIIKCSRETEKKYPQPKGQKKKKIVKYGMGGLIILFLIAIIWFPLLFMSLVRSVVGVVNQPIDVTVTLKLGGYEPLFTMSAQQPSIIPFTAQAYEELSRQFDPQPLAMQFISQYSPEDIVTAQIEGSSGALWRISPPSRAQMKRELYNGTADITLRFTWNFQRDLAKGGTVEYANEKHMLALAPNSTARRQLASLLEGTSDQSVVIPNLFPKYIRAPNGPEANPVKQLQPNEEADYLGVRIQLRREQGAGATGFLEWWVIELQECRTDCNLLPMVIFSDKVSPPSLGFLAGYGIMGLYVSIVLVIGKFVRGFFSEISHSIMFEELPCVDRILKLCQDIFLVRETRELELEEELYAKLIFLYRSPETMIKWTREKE

Piezo1 [2] = molecular target: T1, Piezo1; assay: Ca2+ entry at […] in Piezo1 T-REx HEK […] cells ([…] of Yoda1 response); also reduces Yoda1 response; conditions: TREx-HEK; read-out: % of 10 μM Yoda1 response
Piezo1 [3] = molecular target: T1, Piezo1; assay: as above; conditions: TREx-HEK; read-out: % of 10 μM Yoda1 response; remark: listed apart in the source
Piezo1 [4] = molecular target: T1, Piezo1; assay: intracellular Ca2+ (fura-2) in Piezo1 T-REx HEK […] cells; no response in cells without Piezo1; EC50 […] in HUVECs
Piezo1 [5] = molecular target: T1, Piezo1; assay: inhibition of […] Yoda1-evoked Ca2+ entry in Piezo1 T-REx HEK […] cells; reversible; also Tl+ flux and HUVECs (IC50 […])

SMILES: Clc1cccc(Cl)c1CSc1nnc(-c2ccccn2)o1 [2j]
- inhibition at 10 µM (Piezo1 [1]): ~75%

SMILES: Clc1cccc(Cl)c1CSc1nnc(-c2cccnc2)s1 [7a]
- Emax (Piezo1 [2]): 50%

SMILES: Clc1cccc(Cl)c1CSc1nnc(-c2cnccn2)o1 [compound 11]
- Emax (Piezo1 [3]): ~70%

- EC50 (Piezo1 [4]): 2.51 µM
SMILES: Clc1cccc(Cl)c1CSc1nnc(-c2cnccn2)s1 [Yoda1]

- IC50 (Piezo1 [5]): 1.3 µM
SMILES: Clc1cccc(Cl)c1CSc1nnc(-c2ccc[nH]2)o1 [2k, Dooku1]
